# Data from patent US12465611B2, “Compositions and methods for treatment of depression and other disorders” (priority 2019, dated 2025).
# Where “and” joins values, the source holds several entries; their conditions need not be identical. Equal values may be shown once. Read-outs that look alike come from different tables or passages of the source.
# Key:
# [1] = Plasma concentration and pharmacokinetics of MAOIs and NRIs; conditions: for Average Concentration: TCP plasma
# Excerpt: As used herein, the phrase “controlled-release formulation time period” refers to the period of time during which an active agent in the formulation is released in a delayed but controlled fashion upon administration to a subject. An objective of controlled release is to avoid bioavailability peaks and valleys and achieve a prolonged time period where concentration of the formulation fluctuates in a narrow range. Another key objective is to lengthen the time period where the drug concentration remains above a target minimum concentration required for desired effectiveness.
# As used herein, the term “half-life period” refers to the time period in which the initial concentration of a drug in the plasma is reduced by 50%.
# As used herein, the term “effective plasma concentration time period” refers to a period of time during which an active agent is present in the plasma at an effective plasma concentration.
# [2] = TCP postural hypotension: SBP drop from sitting to standing position; conditions: for Average Postural SBP Drop: sitting to standing
# tyramine pressor effect [3] = conditions: for Average SBP increase: 40 mg of tyramine taken with a meal, TCP 20 mg, phenelzine 60 mg, brofaromine 100 mg, moclobemide 450 mg, selegiline 20 mg; for SBP increase with 40 mg of in-meal tyramine: atomoxetine 40 mg, nortriptyline 125 mg
# Procedure: Thus, wherein the MAOI and the NRI are each administered with an NRI dosage sufficient to result in a blood pressure increase of less than about 20 mm HG in reaction to consuming about 40 mg or less, about 35 mg or less, about 30 mg or less, about 25 mg or less, about 20 mg or less, about 15 mg or less, about 10 mg or less, or about 5 mg or less of tyramine within the effective plasma concentration time period.
# This study is designed to characterize the effects of PHZ on the responses to tyramine throughout the dosing interval when given alone, and with an inhibitor of NET to mitigate the potentiation of the tyramine pressor effect by PHZ.
# [4] = cited from earlier work
# tyramine pressor effect [5] = conditions: cited from earlier work
# tyramine pressor effect [6] = conditions: with TCP; Pare et al., 1982; cited from earlier work
# tyramine pressor effect [7] = conditions: cited from earlier work; remark: listed apart in the source
# rat heart = conditions: given before TCP; Dostert et al., 1994; cited from earlier work
# [8] = oral tyramine with food; VanDenBerg et al., 2003; cited from earlier work
smiles,measurement,setting,value
"N[C@@H]1C[C@H]1c1ccccc1 (racemic) [TCP, tranylcypromine]",time plasma concentration stays above minimum threshold of 25 ng/ml,"[1]; 40 mg TCP dose, not extended release",9 h
same,average Cmax,"[1]; TCP dose of 40 mg/d, immediate release formulation",approximately 230 ng/ml
same,Average Concentration,[1]; 1 to 5 hours since dosing,59.8 ng/mL
same,Average Concentration,[1]; 7 to 10 hours since dosing,17.5 ng/mL
same,highest drop in postural systolic blood pressure,[2]; immediate release formulation,approximately 25 mm HG
same,Average Postural SBP Drop,[2]; 1 to 5 hours since dosing,9.6 mm HG
same,Average Postural SBP Drop,[2]; 7 to 10 hours since dosing,3.4 mm HG
same,Average SBP increase,tyramine pressor effect [3],50.0 mm HG
same,SBP increase with 40 mg of in-meal tyramine,tyramine pressor effect [3]; TCP without or with NRI: desipramine 100 mg,50 mm HG
"NNCCc1ccccc1 [Phenelzine, phenelzine]",half-life,"[4]; plasma, elimination",approximately 11.6 hours
same,reduction of fasting tyramine dose giving 30 mm Hg SBP increase,"tyramine pressor effect [5]; PHZ 60 mg, Bieck and Antonin, 1989",13 fold
same,fasting tyramine dose which results in a 30 mm Hg increase in systolic blood pressure,"tyramine pressor effect [5]; PHZ 60 mg, without drug 437 mg, Bieck and Antonin, 1989",33 mg
same,SBP increase with 40 mg of in-meal tyramine,tyramine pressor effect [3]; PHZ without or with NRI: desipramine 100 mg,12.1 mm HG
C#CCN(C)[C@H](C)Cc1ccccc1 [Selegiline],half-life,"[4]; plasma, elimination",approximately 10 hours
same,Average SBP increase,tyramine pressor effect [3],4.2 mm HG
CN(C)CCC=C1c2ccccc2CCc2ccccc21 [amitriptyline],effect on sensitivity to intravenous tyramine,tyramine pressor effect [6],reversed the increase in sensitivity to intravenous tyramine associated with administration of TCP
CNCC[C@@H](Oc1ccccc1C)c1ccccc1 [atomoxetine],half-life,[4]; among extensive metabolizers,approximately 5 hours
same,half-life,[4]; among slow metabolizers,over 10 hours
CNCCCN1c2ccccc2CCc2ccccc21 [desipramine],half-life,"[4]; plasma, elimination",12 to 30 h and 21 h
same,"reduction of sensitivity to TYR, average factor (increase of TYR dose which increases systolic blood pressure 30 mm Hg)","tyramine pressor effect [5]; 100 mg dose of desipramine, Chalon et al. 2003",5 fold
CNCCC=C1c2ccccc2CCc2ccccc21 [nortriptyline],relationship between Tyramine-relative response and blood concentration,tyramine pressor effect [7]; FIG. 2,tyramine tolerance increases as the blood concentration of nortriptyline increases
same,relation of tyramine sensitivity to plasma concentration,"tyramine pressor effect [7]; depressed patients treated with amitriptyline, Ghose and Coppen, 1977",decrease in tyramine sensitivity correlated with plasma concentrations of nortriptyline
same,Tyramine pressor effect,"tyramine pressor effect [7]; in the presence of the NRI, Freyschuss et al., 1970",much more reduced
CNCCCC1c2ccccc2C=Cc2ccccc21 [protriptyline],half-life,"[4]; plasma, elimination",60 to 90 h
CCOc1ccccc1OC(c1ccccc1)C1CNCCO1 (centres unmarked) [reboxetine],half-life,"[4]; plasma, elimination",13 h
same,effect on labelled tyramine levels in rat heart,rat heart,block the increased levels of labelled tyramine which accumulate in rat heart when given before TCP
NCCc1ccc(O)cc1 [tyramine],"reduction in AUC with food, average",[8],53%
same,"reduction of Cmax with food, on average",[8],72%
same,in-meal tyramine dose producing 30 mm SBP increase relative to fasting oral dose,"tyramine pressor effect [5]; Gillman, 2011",2 to 4 times
